Assay [1] addresses T1, GmPDH1 (Gm18g02650), soybean (Glycine max) prephenate dehydrogenase, wild type (Glycine max, UniProt I1MYY4).
T1 construct: homodimer
T1 sequence (I1MYY4 1-271): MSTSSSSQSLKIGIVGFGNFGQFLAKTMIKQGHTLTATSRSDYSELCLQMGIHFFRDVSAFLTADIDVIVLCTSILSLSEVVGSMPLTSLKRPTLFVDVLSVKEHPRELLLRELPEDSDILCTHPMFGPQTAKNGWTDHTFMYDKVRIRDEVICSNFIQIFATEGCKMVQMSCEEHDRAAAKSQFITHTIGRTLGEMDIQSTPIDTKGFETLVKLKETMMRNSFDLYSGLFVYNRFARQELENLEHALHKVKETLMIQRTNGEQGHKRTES
Put plainly: ADH and PDH assay: steady-state kinetics and Tyr inhibition, GmPDH1 wild type. It is filed as biochemical. As to the method:
(§1) Kinetic parameters of purified recombinant proteins were determined from assays conducted at varying arogenate (19.5 μM-5 mM) and prephenate concentration (23.4 μM-6 mM). Standard assay conditions were 25 mM HEPES pH 7.6, 50 mM KCl and 10% (v/v) ethylene glycol, and 0.5 mM NADP^+ with varied substrate, concentrations. Reactions were initiated by addition of enzyme and incubated at 37° C. monitored every 10-15 seconds at […] using a microplate reader (Tecan Genios). Kinetic parameters were determined by fitting initial velocity data to the Michaelis-Menten equation using the Origin software (OriginLab).
(§2) Arogenate was prepared by enzymatic conversion of prephenate (Sigma-Aldrich) as previously reported^56. For Tyr inhibition assays, Tyr was dissolved in a slightly basic solution (0.025 N NaOH) due to solubility issues, thus the concentration of lysis buffer was increased to 500 mM HEPES final concentration to buffer against the changes by addition of Tyr in the reaction. […]

In assay [2] the target is T2, MtPDH (MtPDH1; Mt3g071980), Medicago truncatula prephenate dehydrogenase, wild type (Medicago truncatula, UniProt A0A0A0R205).
T2 sequence (A0A0A0R205 1-268): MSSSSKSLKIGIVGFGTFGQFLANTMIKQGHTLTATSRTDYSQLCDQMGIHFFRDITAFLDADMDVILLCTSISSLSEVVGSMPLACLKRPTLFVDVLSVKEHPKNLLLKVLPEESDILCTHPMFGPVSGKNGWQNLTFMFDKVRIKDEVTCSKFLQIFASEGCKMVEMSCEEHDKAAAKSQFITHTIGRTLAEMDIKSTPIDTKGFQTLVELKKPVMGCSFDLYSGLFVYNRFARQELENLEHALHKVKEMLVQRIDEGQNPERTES
Put plainly: ADH and PDH assay: steady-state kinetics and Tyr inhibition, MtPDH wild type. It is filed as biochemical. As to the method: as §1, §2

Assay [3] deals with Peanut PDH/ADH (AipaensisVYE8T), Arachis ipaensis, wild type. In words: ADH and PDH assay: steady-state kinetics and Tyr inhibition, peanut PDH/ADH. In kind it is biochemical. Particulars: 0-8 mM L-Tyr. As to the method: as §1
(§3) Arogenate was prepared by enzymatic conversion of prephenate (Sigma-Aldrich) as previously reported^56. For Tyr inhibition assays, Tyr was dissolved in a slightly basic solution (0.025 N NaOH) due to solubility issues, thus the concentration of lysis buffer was increased to 500 mM HEPES final concentration to buffer against the changes by addition of Tyr in the reaction. Reactions containing varying amounts of Tyr (10 μM-8 mM) with 0.5 mM NADP^+ and either 1 mM arogenate or 0.8 mM prephenate were monitored as above.

The target of assay [4] is Glycine max GmPDH1 variant M219T (Glycine max, UniProt I1MYY4, M219T). Put plainly: ADH and PDH assay: steady-state kinetics and Tyr inhibition, GmPDH1 M219T. The settings on record: 0-8 mM L-Tyr. In kind it is biochemical, Glycine max (soybean). As to the method:
as §1, §3

Assay [5] concerns the target T3, Glycine max GmPDH1 variant N222D, SEQ ID NO: 2 (Glycine max, UniProt I1MYY4, N222D).
T3 sequence (I1MYY4 1-271 N222D): T1 sequence (I1MYY4 1-271) with N222D
In words: ADH and PDH assay: steady-state kinetics and Tyr inhibition, GmPDH1 N222D. In kind it is biochemical, Glycine max (soybean). The settings on record: IC50^Tyr, 0.5 mM NADP^+. As to the method: as §1, §3

Assay [6] addresses Glycine max GmPDH1 variant N222A (Glycine max, UniProt I1MYY4, N222A). In words: ADH and PDH assay: steady-state kinetics and Tyr inhibition, GmPDH1 N222A. It is filed as biochemical, Glycine max (soybean). The settings on record: 0-8 mM L-Tyr. As to the method:
as §1, §3

In assay [7] the target is T4, Medicago truncatula MtPDH variant C220D, SEQ ID NO: 1 (Medicago truncatula, UniProt A0A0A0R205, C220D).
T4 sequence (A0A0A0R205 1-268 C220D): T2 sequence (A0A0A0R205 1-268) with C220D
In words: ADH and PDH assay: steady-state kinetics and Tyr inhibition, MtPDH C220D. In kind it is biochemical. As to the method: as §1, §3

Assay [8] concerns the target T5, Medicago truncatula MtncADH variant D220C, SEQ ID NO: 10 (Medicago truncatula, UniProt A0A217FAR3, D220C).
T5 construct: D220C by site-directed mutagenesis
T5 sequence (A0A217FAR3 1-266 D220C): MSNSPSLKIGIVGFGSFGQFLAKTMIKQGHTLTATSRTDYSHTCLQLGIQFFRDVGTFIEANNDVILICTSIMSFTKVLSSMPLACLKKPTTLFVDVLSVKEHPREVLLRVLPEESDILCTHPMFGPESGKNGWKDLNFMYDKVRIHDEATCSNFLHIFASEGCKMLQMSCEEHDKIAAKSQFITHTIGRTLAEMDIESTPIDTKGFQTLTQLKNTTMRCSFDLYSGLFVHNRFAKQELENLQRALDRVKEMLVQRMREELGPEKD
In words: ADH and PDH assay: steady-state kinetics and Tyr inhibition, MtncADH D220C. In kind it is biochemical. How it is done: as §1, §3

For assay [9], the target named is T6, Solanum lycopersicum SolyncADH variant D224N (Solanum lycopersicum, UniProt K4C5K7, D224N).
T6 construct: D224N by site-directed mutagenesis
T6 sequence (K4C5K7 1-272 D224N): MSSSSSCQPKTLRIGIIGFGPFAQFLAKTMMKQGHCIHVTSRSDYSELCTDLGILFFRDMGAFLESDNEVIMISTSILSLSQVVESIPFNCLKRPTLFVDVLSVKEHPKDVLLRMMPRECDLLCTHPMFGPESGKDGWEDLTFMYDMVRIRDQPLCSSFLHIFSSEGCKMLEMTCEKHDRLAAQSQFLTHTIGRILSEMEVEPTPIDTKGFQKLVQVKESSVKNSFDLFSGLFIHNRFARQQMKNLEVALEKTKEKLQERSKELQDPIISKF
In words: ADH and PDH assay: steady-state kinetics and Tyr inhibition, SolyncADH D224N. The settings on record: versus wild-type; ADH activity, 0-8 mM Tyr. It is filed as biochemical, Solanum lycopersicum (tomato). As to the method: as §1, §3

Assay [10] deals with Arabidopsis thaliana AtADH2 variant D241N, SEQ ID NO: 12 (Arabidopsis thaliana, UniProt Q9LMR3, D275N). In words: Tyr inhibition of AtADH2 D241N. In kind it is biochemical. The settings on record: versus wild-type; ADH activity, 0-8 mM Tyr. How it is done: as §1, §3
Arabidopsis thaliana AtADH2 variant D241N, SEQ ID NO: 12, sequence (Q9LMR3 37-358 D275N): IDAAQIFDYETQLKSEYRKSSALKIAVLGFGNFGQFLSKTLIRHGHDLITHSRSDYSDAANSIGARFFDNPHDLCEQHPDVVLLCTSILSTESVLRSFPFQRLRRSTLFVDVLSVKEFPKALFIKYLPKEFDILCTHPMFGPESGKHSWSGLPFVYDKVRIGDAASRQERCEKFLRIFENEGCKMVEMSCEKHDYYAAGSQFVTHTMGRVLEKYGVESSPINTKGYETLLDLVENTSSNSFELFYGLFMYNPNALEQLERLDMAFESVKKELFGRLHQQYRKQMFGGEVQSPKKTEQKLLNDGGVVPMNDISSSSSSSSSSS
The subject of assay [11] is AaPDH, A. aeolicus prephenate dehydrogenase. Particulars: cited from earlier work.

Residue numbers refer to the chain shown, from its start.

Glycine max GmPDH1 variant M219T, sequence (I1MYY4 1-271 M219T): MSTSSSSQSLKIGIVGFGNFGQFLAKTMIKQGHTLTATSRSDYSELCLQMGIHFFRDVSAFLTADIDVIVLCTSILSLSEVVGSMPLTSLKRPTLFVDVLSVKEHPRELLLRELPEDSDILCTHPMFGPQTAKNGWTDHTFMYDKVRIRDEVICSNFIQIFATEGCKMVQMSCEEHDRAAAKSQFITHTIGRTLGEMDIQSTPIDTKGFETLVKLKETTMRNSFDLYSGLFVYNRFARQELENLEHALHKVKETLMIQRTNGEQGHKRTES
Glycine max GmPDH1 variant N222A, sequence (I1MYY4 1-271 N222A): as the sequence (I1MYY4 1-271 M219T) above, with T219M, N222A counted along it

As for `N[C@@H](Cc1ccc(O)cc1)C(=O)O` [Tyr, L-Tyrosine], the IC50 in [1] amounted to 31.3 ± 9.3 mM; in assay [2], 32.1 ± 10 mM; in assay [5] (substrate arogenate (1 mM)), 4.7 ± 0.4 mM; in [5] (substrate prephenate (0.8 mM)) it was 5.3 ± 0.4 mM; in assay [7], 8.2 ± 0.9 mM; in assay [8], 7.7 ± 1.5 mM. Besides, the “feedback inhibition by Tyr” value in assay [1] (up to 8 mM Tyr in assays) and in assay [2] (up to 8 mM Tyr in assays) was “insensitive to feedback inhibition by Tyr” in each case. In addition, the Tyr inhibition result in [3] is listed as “insensitive to Tyr inhibition”. Besides, the “inhibition by Tyr” value in assay [4] and in assay [6] was “not inhibited by Tyr” each time. The “sensitivity to Tyr inhibition” value in assay [8] (versus wild-type, ADH activity, 0-8 mM Tyr) is listed as “significantly less sensitive to Tyr inhibition”; in assay [9], “significantly less sensitive to Tyr inhibition”; in [10], “significantly less sensitive to Tyr inhibition”. The Tyr sensitivity result in assay [11] is on record as “sensitive to Tyr”.

For orientation: IC50 means the concentration needed to halve the response being measured. Read a high IC50 as lower potency.

Source of the values: patent US12134788B2, “Engineered prephenate dehydrogenases and arogenate dehydrogenases and methods of using the same” (Wisconsin Alumni Research Foundation, priority 2017, dated 2024).
